Data published in the supplement of paper PMC10307832.

Compound: CCN(CC)CCNC(=O)c1c(C)[nH]c(/C=C2\C(=O)Nc3ccc(F)cc32)c1C [Sunitinib]
Experiment: relative viability (nuclei count vs DMSO), 5 days (fraction); higher = more cells survive
How it was run: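 For viability, nuclei in each treated well were divided by nuclei in vehicle wells and the median across plates was taken. Lung cancer cell lines in 1536-well plates were pinned with five library-drug doses (not always all listed) spaced by √10, cultured 5 days without medium change, and imaged at 4× after Hoechst staining, with plates passing only at control CV below 25% and at least one doubling.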

Row | Cell Line | relative viability (0.02 µM) | relative viability (0.06325 µM) | relative viability (0.2 µM) | relative viability (0.6325 µM) | relative viability (2 µM)
1 | NCI-H1666 | 1.02 | 1.07 | 1.1 | 1.05 | 
2 | NCI-H838 | 0.932 | 1.06 | 1.03 | 0.952 | 0.782
3 | LOU-NH91 | 1.01 | 0.969 | 1 | 0.98 | 0.941
4 | HARA | 0.966 | 1.16 | 1.03 | 0.987 | 
5 | NCI-H1299 | 0.99 | 1.07 | 1.04 | 1.04 | 1.08
6 | NCI-H661 | 0.977 |  | 1 | 1.05 | 1.03
7 | LCLC-103H | 0.905 | 1.07 | 1.12 | 0.903 | 1.03
8 | NCI-H1793 |  | 0.974 |  | 0.964 | 0.831
9 | ABC-1 | 1.03 | 1.23 | 1.06 | 1.02 | 1.01
10 | NCI-H596 | 0.952 | 1.15 |  | 0.998 | 0.913
11 | HCC-44 |  | 1.04 | 1.04 | 1.01 | 1.04
12 | NCI-H2023 | 0.874 | 1.09 | 1.07 | 1.03 | 0.967
13 | NCI-H2087 | 1.16 | 1.25 | 1.13 | 1.1 | 1.11
14 | NCI-H1703 | 0.616 | 0.257 | 0.315 | 0.216 | 0.242
15 | LCLC-97TM1 | 0.968 | 1.14 | 1.01 | 1.02 | 1.09
16 | NCI-H1734 | 0.916 | 1.11 | 1.04 | 1.05 | 0.981
17 | NCI-H1792 | 0.802 | 1.11 | 1.18 | 0.924 | 1.02
18 | H3255 | 0.94 | 0.902 |  | 1.02 | 0.988
19 | NCI-H2126 | 0.946 | 1.06 | 1.04 | 1.04 | 1.03
20 | CAL-12T | 0.908 | 1.03 | 1.11 | 1.13 | 1.03

Row | Cell Line | relative viability (0.02 µM) | relative viability (0.06325 µM) | relative viability (0.2 µM) | relative viability (0.6325 µM) | relative viability (2 µM)
21 | COR-L23 | 0.951 | 1.08 | 1.15 | 1.2 | 1.1
22 | BEN | 0.85 | 0.97 | 0.988 | 0.973 | 
23 | HCC-366 | 0.963 | 1.05 | 1.07 |  | 0.965
24 | NCI-H358 | 0.875 | 0.97 | 1.1 | 0.897 | 0.67
25 | A-427 | 0.981 |  | 1.05 | 1.07 | 1.06
26 | NCI-H2085 | 0.999 | 1.04 | 1.01 | 1.03 | 1.04
27 | SK-MES-1 | 0.931 | 1.03 | 1.09 | 1.11 | 0.988
28 | NCI-H1650 |  | 1.05 | 0.964 | 0.942 | 0.903
29 | EKVX | 0.974 | 1.01 | 1.14 | 1.12 | 1
30 | NCI-H2009 | 0.957 | 1.07 | 1.07 | 1.11 | 
31 | NCI-H1651 | 0.938 | 1.1 |  | 0.996 | 1.03
32 | LU99A | 0.84 | 1.1 | 1.04 | 0.938 | 0.901
33 | NCI-H322M | 0.866 | 1.02 | 1 | 0.936 | 0.892
34 | NCI-H2347 | 1.01 | 1.08 | 1.1 | 1.04 | 1.18
35 | HOP-62 | 0.95 | 1.07 | 1.13 | 1.1 | 1.06
36 | ChaGo-K-1 | 0.987 | 1.01 | 1.04 | 1.06 | 1.04
37 | NCI-H520 | 0.926 | 1.08 | 1.07 | 0.979 | 0.912
38 | IA-LM | 0.951 | 0.953 | 1.05 | 1.1 | 1.07
39 | HCC-78 | 0.984 | 0.947 | 0.994 | 0.899 | 1
